The test system of test [1] is primary human peripheral blood mononuclear cells (PBMCs). The test is described as follows: Cytokine (IFNα, IL-12p70, TNFα) induction in human PBMCs stimulated with TLR agonists. The test is classed as cell-based. As to conditions: human PBMC. The procedure: IFNα and IL-12p70 responses were measured in primary human peripheral blood mononuclear cells (PBMCs) after exposure to various concentrations of oxoadenine compounds.
Liposomes were prepared using the thin film method: phospholipids (DOPC and cholesterol at 40 and 10 mg/mL respectively) and agonist(s) (TLR7/8 agonist fixed at 2 mg/mL) were dissolved in chloroform at the desired concentration in a round bottom flask. The solvent was removed under vacuum by rotary evaporation at 45° C., and the resulting dried film was placed in a vacuum chamber overnight to remove any residual solvent. Rehydration buffer was added to the dried film and the suspension was sonicated to resuspend the phospholipids and form the unilamellar vesicles. Sonication continued until the particle size was<200 nm, at which time the formulations were sterile filtered through a 0.22 μm PVDF filter. Concentrations of agonist(s) in the formulations was determined by RP-HPLC using a five-point standard curve. Human whole blood was collected from normal healthy donors at the University of Montana (Missoula, MT) using an Institutional Review Board approved protocol. […] Culture supernatants were analyzed for IL-12p70 and IFNα levels using human IL-12p70 DuoSet (R) ELISA kit (R&D Systems, Minneapolis, MN) and human IFNα VeriKine ELISA kit (Pestka Biomedical Laboratories, Inc., Piscataway, NJ).

The test system of test [2] is monovalent (A/Victoria, H3N2) split flu antigen. It is filed as in vivo, Balb/c mice. As to conditions: i.m.
Test [3] concerns CT26 cells (murine colon cancer cell line). The test is described as follows: CT26 syngeneic tumor model, tumor growth. As to conditions: CT26 s.c. in female Balb/c mice; 10 μg or 50 μg IV once a week for two weeks, 2% glycerol in sterile water (FIG. 6A, 6B). It is filed as in vivo. How it is done: Young, female Balb/c mice (approximately 8 weeks old) were implanted with 1×10^6 CT26 cells (murine colon cancer cell line, syngeneic in Balb/c mice) subcutaneously in the right flank. When tumors reached an average size of 75 mm^3 (11 days after CT26 cells were implanted), mice were randomized into treatment groups. Beginning on day 12, 10 μg or 50 μg of UM-1007 in an aqueous formulation (2% glycerol in sterile water) was injected IV once a week for two weeks.

Here are results for one molecule from patent US11964014B2, “Vaccine adjuvants based on TLR receptor ligands” (priority 2019, dated 2024).

Some results are limits rather than exact numbers.

For the molecule `CCCCCCCCCCCCCCCC(=O)OC[C@H](COCCOCCOCCOP(=O)(O)OCCN1CCC(Cn2c(O)nc3c(N)nc(O[C@@H](C)CCC)nc32)CC1)OC(=O)CCCCCCCCCCCCCCC` [UM-1007], in test [1] (24 h, liposomes, alone or in combination with TLR4 agonist CRX-601 (FIG. 2A)), the “IFNα induction potency compared with the non-PEGylated oxoadenine Compound B” value was “more potent IFNα inducer”. Further, the “IL-12p70 induction potency relative to Compound B” value in test [1] (combined with TLR4 agonist CRX-601 (FIG. 2B)) is 125 fold. Also, in test [2] (Balb/c mice, liposomes, 10 μg UM-1007 alone), the “Anti-influenza IgG titers over antigen-only vaccinated animals” value was determined as 17 fold. The “Dose dependence of anti-influenza IgG titer enhancement” value in test [2] (Balb/c mice, liposomes, 14dp2 (FIG. 3B)) is reported as “enhanced titers in a dose-dependent manner”. For the same molecule, the “Anti-influenza IgG titers over the antigen-alone group” value in test [2] (Balb/c mice, liposomes, co-encapsulated with CRX-601 (TLR7/8:TLR4 ratio 10:1)) was above 25 fold. In addition, in test [2] (naïve Balb/c mice, liposomes alone or co-encapsulated with CRX-601, 14dp1 (FIG. 3A)), the “Anti-influenza IgG titers after a single vaccination” value was “Strong anti-influenza IgG titers”. Besides, the “Tumor growth compared to treatment naive controls” value in test [3] was “slower tumor growth”.
